Earlier results as cited in patent EP3342399B1, “PHARMACEUTICAL COMPOSITIONS COMPRISING POSACONAZOLE AND MANUFACTURING METHOD” (Abdi Ibrahim Ilac Sanayi ve Ticaret A.S., priority 2016, dated 2018).
Where two headings read alike, the source gives them in different places.

In the case of `CC[C@@H]([C@H](C)O)n1ncn(-c2ccc(N3CCN(c4ccc(OC[C@@H]5CO[C@@](Cn6cncn6)(c6ccc(F)cc6F)C5)cc4)CC3)cc2)c1=O` [Posaconazole, 1-[(1S,2S)-1-Ethyl-2-hydroxypropyl]-4-{4-[4-(4-{2-[(2S,4R)-(1,2,4-triazol-1-ylmetyl)-2-(2,4-difluorophenyl)-oxolan-4-ylmetyl]phenyl}piperazin-1-yl)phenyl]}-2,3-dihydro-1,2,4-triazol-3-one], the permeability (BCS Class II) is given as “high”, the solubility (BCS Class II) is given as “low” and the solubility (at low pH) is given as “high”.
